Data as given in patent US12091425B2 (AMGEN INC., priority 2016, dated 2024).

target: T1, Mcl-1/Bim interaction, recombinant human Mcl-1 (171-327) (Homo sapiens, UniProt Q07820); assay: Cell free Mcl-1: Bim Affinity Assay (Mcl-1 HTRF); assay type: binding; details: TR-FRET, 0.1 nM Mcl-1 (171-327), 0.05 nM biotin-Bim (51-76)
T1 construct: made in house
Summary of the method: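 Read-out is time-resolved FRET after overnight incubation, using a biotin-labelled peptide from human Bim (51-76) as the binding partner; IC50 was derived from competition curves.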

T1 sequence (Q07820 171-327): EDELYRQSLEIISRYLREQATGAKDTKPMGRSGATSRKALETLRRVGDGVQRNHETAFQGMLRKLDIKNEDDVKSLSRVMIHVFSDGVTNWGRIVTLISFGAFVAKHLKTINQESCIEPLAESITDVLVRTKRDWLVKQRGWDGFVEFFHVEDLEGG

Row | Compound | IC50 [nM]
1 | O=C1NS(=O)(=O)[C@H](C(F)(F)F)CCCC[C@H](O)[C@@H]2CC[C@H]2CN2C[C@@]3(CCCc4cc(Cl)ccc43)COc3ccc1cc32 (single isomer, unassigned) [Example 432] | 0.996
2 | C[C@]12CC[C@H]1CN1C[C@@]3(CCCc4cc(Cl)ccc43)COc3ccc(cc31)C(=O)NS(=O)(=O)CCCCC[C@@H]2O (single isomer, unassigned) [Example 121] | 12.2
3 | CN(C)C(=O)[C@@H]1CC/C=C/[C@H](O)[C@@H]2CC[C@H]2CN2C[C@@]3(CCCc4cc(Cl)ccc43)COc3ccc(cc32)C(=O)NS1(=O)=O (single isomer, unassigned) [Example 436] | 0.243
4 | CS(=O)(=O)CCO[C@@H]1CCCCCS(=O)(=O)NC(=O)c2ccc3c(c2)N(C[C@@H]2CC[C@H]21)C[C@@]1(CCCc2cc(Cl)ccc21)CO3 [Example 1096, (1S,3′R,6′R,7′R)-6-chloro-7′-(2-(methylsulfonyl)ethoxy)-3,4-dihydro-2H,15′H-spiro [naphthalene-1,22′-[20]oxa[13]thia[1,14]diazatetracyclo[14.7.2.0^3,6.0^19,24]pentacosa [16,18,24]trien]-15′-one 13′,13′-dioxide] | 3.48

Continued, values first:

Row | IC50 [nM] | Compound
5 | 0.378 | CC[C@@H]1CC/C=C/[C@H](OCC(=O)N(C)C)[C@@H]2CC[C@H]2CN2C[C@@]3(CCCc4cc(Cl)ccc43)COc3ccc(cc32)C(=O)NS1(=O)=O [Example 973]
6 | 3.74 | CC[C@@H]1CCCOC[C@@H]2CC[C@H]2CN2C[C@@]3(CCCc4cc(Cl)ccc43)COc3ccc(cc32)C(=O)NS1(=O)=O (single isomer, unassigned) [Example 368]
7 | 0.781 | O=C1NS(=O)(=O)[C@H]2CC[C@@H]2CCC[C@H](O)[C@@H]2CC[C@H]2CN2C[C@@]3(CCCc4cc(Cl)ccc43)COc3ccc1cc32 [Example 92, (1S,3′R,6′R,7′S,11′S,14′S)-6-chloro-7′-hydroxy-3,4-dihydro-2H,17′H-spiro[naphthalene-1,24′-[22]oxa[15]thia[1,16]diazapentacyclo[16.7.2.0^3,6.0^11,14.0^21,26]heptacosa[18,20,26]trien]-17′-one 15′,15′-dioxide]
8 | 0.755 | CC[C@@H]1CC/C=C/[C@H](OCCOC)[C@@H]2CC[C@H]2CN2C[C@@]3(CCCc4cc(Cl)ccc43)COc3ccc(cc32)C(=O)NS1(=O)=O [Example 980, (1S,3′R,6′R,7′S,8′E,12′R)-6-chloro-12′-ethyl-7′-(2-methoxyethoxy)-3,4-dihydro-2H,15′H-spiro[naphthalene-1,22′-[20]oxa[13]thia[1,14]diazatetracyclo[14.7.2.0^3,6.0^19,24]pentacosa [8,16,18,24]tetraen]-15′-one 13′,13′-dioxide]
9 | 0.367 | CO[C@H]1/C=C/CCNS(=O)(=O)NC(=O)c2ccc3c(c2)N(C[C@@H]2CC[C@H]21)C[C@@]1(CCCc2cc(Cl)ccc21)CO3 (single isomer, unassigned) [Example 46]
10 | 2.15 | CCO[C@H]1/C=C/CC[C@@H](CC)S(=O)(=O)NC(=O)c2ccc3c(c2)N(C[C@@H]2CC[C@H]21)C[C@@]1(CCCc2cc(Cl)ccc21)CO3 [Example 975, (1S,3′R,6′R,7′S,8′E,12′R)-6-chloro-7′-ethoxy-12′-ethyl-3,4-dihydro-2H,15′H-spiro[naphthalene-1,22′-[20]oxa[13]thia[1,14]diazatetracyclo[14.7.2.0^3,6.0^19,24]pentacosa [8,16,18,24]tetraen]-15′-one 13′,13′-dioxide]
11 | 32.3 | CO[C@@H]1CCCCCCS(=O)(=O)NC(=O)c2ccc3c(c2)N(C[C@@H]2CC[C@H]21)C[C@@]1(CCCc2cc(Cl)ccc21)CO3 [Example 230, (1S,3′R,6′R,7′R)-6-chloro-7′-methoxy-3,4-dihydro-2H,16′H-spiro[naphthalene-1,23′-[21]oxa[14]thia[1,15]diazatetracyclo[15.7.2.0^3,6.0^20,25]hexacosa[17,19,25]trien]-16′-one 14′,14′-dioxide]
12 | 1.43 | O=C1NS(=O)(=O)[C@H]2C[C@H](CC[C@H](O)[C@@H]3CC[C@H]3CN3C[C@@]4(CCCc5cc(Cl)ccc54)COc4ccc1cc43)C2 [Example 103, (1S,3′R,6′R,7′S,10′R,12′R)-6-chloro-7′-hydroxy-3,4-dihydro-2H,15′H-spiro[naphthalene-1,22′-[20]oxa[13]thia[1,14]diazapentacyclo[14.7.2.1^10,120^3,6.0^19,24]hexacosa[16,18,24]trien]-15′-one 13′,13′-dioxide]

same assay, conditions: cell free Mcl-1:Bim TR-FRET, recombinant human Mcl-1 (171-327)

Row | Compound | IC50 [nM]
13 | C[C@@H]1CC/C=C/[C@H](O)[C@@H]2CC[C@H]2CN2C[C@@]3(CCc4cc(Cl)ccc43)COc3ccc(cc32)C(=O)NS1(=O)=O [Example 698, (1S,3′R,6′R,7′S,8′E,12′R)-5-chloro-7′-hydroxy-12′-methyl-2,3-dihydro-15′H-spiro[indene-1,22′-[20]oxa[13]thia[1,14]diazatetracyclo[14.7.2.0^3,6.0^19,24]pentacosa [8,16,18,24]tetraen]-15′-one 13′,13′-dioxide] | 0.679
14 | O=C1NS(=O)(=O)CCCCC[C@@H](CO)[C@@H]2CC[C@H]2CN2C[C@@]3(CCCc4cc(Cl)ccc43)COc3ccc1cc32 (single isomer, unassigned) [Example 898, (1S,3′R,6′R,7′R)-6-chloro-7′-(hydroxymethyl)-3,4-dihydro-2H,15′H-spiro[naphthalene-1,22′-[20]oxa[13]thia[1,14]diazatetracyclo[14.7.2.0^3,6.0^19,24]pentacosa [16,18,24]trien]-15′-one 13′,13′-dioxide or (1S,3′R,6′R,7′S)-6-chloro-7′-(hydroxymethyl)-3,4-dihydro-2H,15′H-spiro[naphthalene-1,22′[20]oxa[13]thia[1,14]diazatetracyclo[14.7.2.0^3,6.0^19,24]pentacosa[16,18,24]trien]-15′-one 13′,13′-dioxide] | 4.03
15 | CC(=O)N(C)[C@H]1CCCCCS(=O)(=O)NC(=O)c2ccc3c(c2)N(C[C@@H]2CC[C@H]21)C[C@@]1(CCCc2cc(Cl)ccc21)CO3 (single isomer, unassigned) [Example 940] | 18.6
16 | (1S,3′R,6′S,14′S,15′S)-6-chloro-3,4-dihydro-2H,9′H,17′H-spiro[naphthalene-1,24′-[22]oxa[15]thia[1,10,16]triazapentacyclo[16.7.2.1^10,14.0^3,6.0^21,26]octacosa[18,20,26]triene]-9′,17′-dione 15′-oxide or (1S,3′R,6′S,14′S,15′R)-6-chloro-3,4-dihydro-2H,9′H,17′H-spiro[naphthalene-1,24′-[22]oxa[15]thia[1,10,16]triazapentacyclo[16.7.2.1^10,14.0^3,6.0^21,26]octacosa[18,20,26]triene]-9′,17′-dione 15′-oxide [Example 949] | 8.43
17 | O=C1NS(=O)(=O)CCC[C@H](O)CC[C@@H]2CC[C@H]2CN2C[C@@]3(CCCc4cc(Cl)ccc43)COc3ccc1cc32 (single isomer, unassigned) [Example 502, (1S,3′R,6′S,9′R)-6-chloro-9′-hydroxy-3,4-dihydro-2H,15′H-spiro[naphthalene-1,22′-[20]oxa[13]thia[1,14]diazatetracyclo[14.7.2.0^3,6.0^19,24]pentacosa [16,18,24]trien]-15′-one 13′,13′-dioxide or (1S,3′R,6′S,9′S)-6-chloro-9′-hydroxy-3,4-dihydro-2H,15′H-spiro[naphthalene-1,22′-[20]oxa[13]thia[1,14]diazatetracyclo[14.7.2.0^3,6.0^19,24]pentacosa [16,18,24]trien]-15′-one 13′,13′-dioxide] | 2.31
18 | CC(=O)N1CC[C@H](O)[C@@H]2CC[C@H]2CN2C[C@@]3(CCCc4cc(Cl)ccc43)COc3ccc(cc32)C(=O)NS(=O)(=O)CC1 (single isomer, unassigned) [Example 778] | 6.89

Next, values leading:

Row | IC50 [nM] | Compound
19 | 8.26 | O=C1NS(=O)(=O)CCCOC[C@H](O)[C@@H]2CC[C@H]2CN2C[C@@]3(CCCc4cc(Cl)ccc43)COc3ccc1cc32 (single isomer, unassigned) [Example 870, (3R,6R,7R,22S)-6′-chloro-7-hydroxy-3′,4′-dihydro-2′H,15H-spiro[9,20-dioxa-13-thia-1,14-diazatetracyclo[14.7.2.0^3,6.0^19,24]pentacosa-16,18,24-triene-22,1′-naphthalen]-15-one 13,13-dioxide or (3R,6R,7S,22S)-6′-chloro-7-hydroxy-3′,4′-dihydro-2′H,15H-spiro[9,20-dioxa-13-thia-1,14-diazatetra-cyclo[14.7.2.0^3,6.0^19,24]pentacosa-16,18,24-triene-22,1′-naphthalen]-15-one 13,13-dioxide]
20 | 4.32 | O=C1NS(=O)(=O)CC/C=C\C[C@@H](O)[C@@H]2CC[C@H]2CN2C[C@@]3(CCCc4cc(Cl)ccc43)COc3ccc1cc32 (single isomer, unassigned) [Example 845]
21 | 12 | O=C1CC[C@@H]2CC[C@H]2CN2C[C@@]3(CCCc4cc(Cl)ccc43)COc3ccc(cc32)C(=O)NS(=O)(=O)CCN1 [Example 945, (1S,3′R,6′S)-6-chloro-3,4-dihydro-2H,9′H,15′H-spiro[naphthalene-1,22′-[20]oxa[13]thia[1,10,14]triazatetracyclo[14.7.2.0^3,6.0^19,24]pentacosa[16,18,24]triene]-9′,15′-dione 13′,13′-dioxide]
22 | 5.8 | O=C1NS(=O)(=O)CCCC2(O)CCOC(C2)C2CCC2CN2CC3(CCCc4cc(Cl)ccc43)COc3ccc1cc32 (single isomer, unassigned) [Example 910]
23 | 5.07 | O=C1NS(=O)(=O)CCC[C@]2(O)CCO[C@H](C2)[C@@H]2CC[C@H]2CN2C[C@@]3(CCCc4cc(Cl)ccc43)COc3ccc1cc32 (single isomer, unassigned) [Example 924]
